Data from doi:10.1101/2024.10.14.618151v1 (bioRxiv, 2024).
Non-standard residues stand in square brackets, D forms with d. Residues, ends and D or L forms follow the SMILES beside them. No end group written: not given here. pGlu = O=C1CC[C@@H](C(=O)O)N1

Test system: PBL migration across TNF-α/IFN-γ-stimulated endothelial cells (HDBEC)
Details: for IC50: 24 h

Molecule	effect on lymphocyte migration in vitro	IC50 [nM]
SVTEQGA	full activity	
SVTEQGAELSNEER [PEPITEM]		0.045
CC(C)[C@@H](NC(=O)[C@H](N)[C@H](C)O)C(=O)N[C@H](CO)C(N)=O [tvs-NH2] (H-[dT]-[dV]-[dS]-NH2)		0.024
C[C@H](NC(=O)CNC(=O)[C@@H]1CCC(=O)N1)C(N)=O [[PyroGlu]-GA-NH2] ([pGlu]-Gly-Ala-NH2)		0.0032
